Reference: article PMC8284461, “Piperidine-4-Carboxamides Target DNA Gyrase in Mycobacterium abscessus” (Antimicrobial Agents and Chemotherapy, 2021)
≈ marks a conversion by molar mass, not a printed value.

Key:
[1] = system: M. abscessus subsp. abscessus ATCC 19977 844-TMF^r-4 (GyrB M474I); test: MIC, resistant mutant; assay type: cell-based, Mycobacterium abscessus; details: Mycobacteroides abscessus, ATCC19977
[2] = system: M. abscessus subsp. abscessus ATCC 19977 biofilm; test: Antibiofilm activity, MBEC biofilm assay; assay type: cell-based, Mycobacterium abscessus; details: 1×, 4×, 8× MIC; surface-attached CFU after 2 and 3 days
Description: The antibiofilm activity of 844 and 844-TMF was determined employing the MBEC 96-well Biofilm assay kit (19111; Innovotech, Edmonton, AB, Canada) as described previously ([15]) with minor modifications. Briefly, exponentially growing M. abscessus subsp. abscessus ATCC 19977 cultures were spun down at 3,200 × g for 10 min and washed with 7H9 broth without Tween 80 (‘7H9’). Bacteria were resuspended in ‘7H9’ to an OD600 of 0.0125, and 150 μl was dispensed into the wells of Innovotech 96-well plates. Pegs (protruding from the specialized lids of the Innovotech multiwell plates) were inserted into the bacterial suspensions in the wells, and the cultures were grown 24 h with shaking at 110 rpm at 37°C to allow attachment and growth of the bacteria on the surface of the pegs. […] Biofilm growth on the pegs was measured by CFU determination. The pegs were washed in 200 μl ‘7H9’ medium, removed, and placed in 1.7-ml microcentrifuge tubes (87003-294; VWR, Radnor, PA, USA) containing 500 μl PBS/Tween 80 (0.025%). The tubes were vortexed at 2,000 rpm for 90 s to detach and suspend the bacteria from the pegs before samples were serially diluted and plated onto 7H10 agar supplemented with 0.4% activated charcoal to determine CFU/peg.

Plasma stability = assay type: in vitro ADME, New Zealand white rabbits; details: rabbit plasma, 37°C, 1 μg/ml
Description: The plasma stability assays were carried out using plasma from female CD-1 mice, New Zealand white rabbits, rhesus monkeys, and humans containing K2EDTA anticoagulant (Bioreclamation). Stability samples consisted of 5 μl of stock compound solution in 50:50 ACN/water and 95 μl of plasma to a final concentration of 1 μg/ml. The samples were incubated at 37°C with shaking; 10 μl of plasma was removed at each time point and combined with 100 μl of ACN/methanol 50:50 protein precipitation solvent containing internal standard (10 ng/ml verapamil). Chromatography for metabolite identification was performed the same as specified for pharmacokinetic sample analysis. Full scan total ion chromatograms (TIC) of plasma extracts were acquired using a Q Exactive high-resolution mass spectrometer (QE-HRMS) at 70,000 mass resolution. Thermo Fisher Compound Discoverer software was used to assist in identifying the 844-TFM metabolites from the QE-HRMS TIC mass spectrum. Figure S2 in the supplemental material illustrates the extracted ion chromatograms (XIC) of 844-TFM and the metabolites using 5 ppm mass accuracy before and after 12 h of incubation in mouse plasma.

[3] = system: M. abscessus complex strains; test: MIC across reference strains and clinical isolates; assay type: cell-based, Mycobacterium abscessus
Description: (§1) MIC was determined using the broth microdilution method in 96-well plates as described previously ([47]). Briefly, a 10-point 2-fold serial dilution of compounds was performed in 96-well plates (Costar 3370; Corning, USA) starting at twice the desired highest concentration. […] One hundred microliters of the bacterial suspension was seeded onto the 96-well plates containing 100 μl of the serially diluted compounds to give a final volume of 200 μl in each well with the final OD600 of 0.005. The plates were sealed with parafilm, placed onto wet paper towels in a lock-lock box and incubated for 3 days at 37°C with orbital shaking at 90 rpm. […] Absorbance values at day 3 were subtracted from the day 0 readout. Percent growth inhibition was calculated by dividing the absolute absorbance value of treated cells with untreated control and multiplying by 100. CLR was included in all MIC experiments as a positive control to monitor assay reproducibility. MIC was defined as 90% of growth inhibition relative to untreated controls.

[4] = system: M. abscessus subsp. bolletii M232; test: MIC, broth microdilution; assay type: cell-based, Mycobacterium abscessus; details: Mycobacteroides abscessus, 72 h, 90% growth inhibition, 3 days
Description: as §1

[5] = system: M. abscessus subsp. abscessus M337; test: MIC, broth microdilution; assay type: cell-based, Mycobacterium abscessus; details: Mycobacteroides abscessus, 72 h, 90% growth inhibition, 3 days
Description: as §1

[6] = system: M. abscessus subsp. abscessus M199; test: MIC, broth microdilution; assay type: cell-based, Mycobacterium abscessus; details: Mycobacteroides abscessus, 72 h, 90% growth inhibition, 3 days
Description: as §1

[7] = system: M. abscessus subsp. massiliense M111; test: MIC, broth microdilution; assay type: cell-based, Mycobacterium abscessus; details: Mycobacteroides abscessus, 72 h, 90% growth inhibition, 3 days
Description: as §1

[8] = system: M. abscessus subsp. abscessus K21; test: MIC, broth microdilution; assay type: cell-based, Mycobacterium abscessus; details: Mycobacteroides abscessus, 72 h, 90% growth inhibition, 3 days
Description: as §1

[9] = system: M. abscessus subsp. abscessus ATCC 19977; test: MIC, broth microdilution; assay type: cell-based, Mycobacterium abscessus; details: Mycobacteroides abscessus, ATCC19977, 72 h; abscessus ATCC 19977 wild type; 90% growth inhibition, 3 days
Description: as §1

[10] = system: M. abscessus subsp. abscessus M404; test: MIC, broth microdilution; assay type: cell-based, Mycobacterium abscessus; details: Mycobacteroides abscessus, 72 h, 90% growth inhibition, 3 days
Description: as §1

[11] = system: M. abscessus subsp. abscessus M9; test: MIC, broth microdilution; assay type: cell-based, Mycobacterium abscessus; details: Mycobacteroides abscessus, 72 h, 90% growth inhibition, 3 days
Description: as §1

[12] = system: M. abscessus subsp. abscessus Bamboo; test: MIC, broth microdilution; assay type: cell-based, Mycobacterium abscessus; details: Mycobacteroides abscessus, 72 h; abscessus Bamboo wild type; 90% growth inhibition, 3 days
Description: as §1

[13] = system: M. abscessus subsp. abscessus M421; test: MIC, broth microdilution; assay type: cell-based, Mycobacterium abscessus; details: Mycobacteroides abscessus, 72 h, 90% growth inhibition, 3 days
Description: as §1

[14] = system: M. abscessus subsp. bolletii CCUG 50184T; test: MIC, broth microdilution; assay type: cell-based, Mycobacterium abscessus; details: Mycobacteroides abscessus, 72 h, 90% growth inhibition, 3 days
Description: as §1

[15] = system: M. abscessus subsp. bolletii M506; test: MIC, broth microdilution; assay type: cell-based, Mycobacterium abscessus; details: Mycobacteroides abscessus, 72 h, 90% growth inhibition, 3 days
Description: as §1

[16] = system: M. abscessus subsp. massiliense CCUG 48898T; test: MIC, broth microdilution; assay type: cell-based, Mycobacterium abscessus; details: Mycobacteroides abscessus, 72 h, 90% growth inhibition, 3 days
Description: as §1

[17] = system: M. abscessus subsp. abscessus ATCC 19977 MXF^r-1 (GyrA D96Y); test: MIC, resistant mutant; assay type: cell-based, Mycobacterium abscessus; details: Mycobacteroides abscessus, ATCC19977

SMILES: COc1ccc2nccc(NC(=O)C3CCN(CCc4ccc(C(F)(F)F)cc4)CC3)c2n1 [844-TFM]
- MIC [1]: 6 µM (≈ 2.75 µg/mL)
- bactericidal activity against M. abscessus grown as biofilm [2]: bactericidal
- remaining after 24 h (Plasma stability): approximately 80%
- MIC ([3]; Mycobacteroides abscessus, reference strains and clinical isolates of Table 1, read-out: MICs ranging across the M. abscessus complex strains): 1.5 to 6 µM (≈ 0.688 to 2.75 µg/mL)
- fold more potent than 844 ([3]; whole-cell potency relative to 844): ~8 fold
- MIC [4]: 1.6 µM (≈ 0.734 µg/mL)
- MIC [5]: 3.1 µM (≈ 1.42 µg/mL)
- MIC [6]: 6.3 µM (≈ 2.89 µg/mL)
- MIC [7]: 6.3 µM (≈ 2.89 µg/mL)
- MIC [8]: 3.5 µM (≈ 1.6 µg/mL)
- MIC [9]: 1.5 µM (≈ 0.688 µg/mL)
- MIC [10]: 1.6 µM (≈ 0.734 µg/mL)
- MIC [11]: 3.1 µM (≈ 1.42 µg/mL)
- MIC [12]: 1.5 µM (≈ 0.688 µg/mL)
- MIC [13]: 1.6 µM (≈ 0.734 µg/mL)
- MIC [14]: 2 µM (≈ 0.917 µg/mL)
- MIC [15]: 3.1 µM (≈ 1.42 µg/mL)
- MIC [16]: 2 µM (≈ 0.917 µg/mL)
- MIC [17]: 6 µM (≈ 2.75 µg/mL)
